Data reported in US20070196359A1, “Halosuccinimide biocide” (Minntech Corporation, priority 2006, published 2007).

What was measured:
M. terrae mycobacteria = experiment: Efficacy against mycobacteria (FIG. 2); format: cell-based; conditions: for time to total kill of mycobacteria: pH 7.4
Protocol: The NCS biocide solution included about 1% NCS, was buffered at a pH of about 4 and was tested at 20° C. The NBS biocide solution included about 1% NBS, was buffered at a pH of about 3 and was tested at 20° C. Each solution produced a total kill corresponding to a 6 log reduction of the mycobacteria.

[1] = test system: B. subtilis bacterial spores; experiment: Efficacy against bacterial endospores (FIG. 1); format: cell-based
Protocol: The NCS biocide solution included about 1% NCS and was buffered at a pH of about 4. The NBS biocide solution included about 1% NBS and was buffered at pH about 3. […] In the case of NCS, a total kill corresponding to a 6 log reduction occurred over a period of approximately 30 minutes. In the case of NBS, a total kill corresponding to a 6 log reduction occurred over a period of approximately 60 minutes.

[2] = Stability of the biocide solution over time, active ingredient by iodometric titration (FIG. 3); format: physicochemical
Excerpt: The NBS biocide solution included about 1.0% NBS, 0.19% surfactant L-44 and was at a pH of about 3. The NCS biocide solution included about 1.0% NCS, 0.19% surfactant and was at a pH of about 3.

[3] = about 1% NBS, buffered at pH about 3, 20° C
[4] = about 1% NCS, buffered at pH about 4, 20° C

Compound | time to total kill (M. terrae mycobacteria; [3]) | total kill, log reduction of the mycobacteria (M. terrae mycobacteria; [3]) | time to total kill of mycobacteria (M. terrae mycobacteria) | period to total kill (6 log reduction) [1, 3] | total kill, log reduction in the bacteria [1, 3] | stability over time ([2]; about 1.0% NBS, 0.19% surfactant L-44, pH about 3, increasing amounts of succinimide added, best at 9.0%) | time to total kill (M. terrae mycobacteria; [4]) | total kill, log reduction of the mycobacteria (M. terrae mycobacteria; [4]) | period to total kill (6 log reduction) [1, 4] | total kill, log reduction in the bacteria [1, 4] | stability over time compared to NCS alone ([2]; about 1.0% NCS, 0.19% surfactant, pH about 3, 4.8% succinimide added)
O=C1CCC(=O)N1Br [NBS, N-bromosuccinimide] | about 30 seconds | 6 log | about 175 seconds | approximately 60 minutes | 6 log | improved stability over time | – | – | – | – | –
O=C1CCC(=O)N1Cl [NCS, N-chlorosuccinimide] | – | – | about 90 seconds | – | – | – | about 30 seconds | 6 log | approximately 30 minutes | 6 log | improved stability
